Like-named read-outs stand apart in the source and are kept apart here. Positions of bridges follow the written chain, without caps; N, C: chain ends. Non-standard residues stand in square brackets, D forms with d. Residues, ends and D or L forms follow the SMILES beside them. 1Nal = N[C@@H](Cc1cccc2ccccc12)C(=O)O; Lys(Me2) = CN(C)CCCC[C@H](N)C(=O)O
Tests used:
hNav1.3 = hNav1.3 (Homo sapiens, UniProt Q9NY46); experiment: cell-based; conditions: IonWorks Quattro, read-out: IWQ Use Nav1.3
hNav1.5 = hNav1.5 (Homo sapiens, UniProt Q14524); experiment: cell-based
hNav1.5, sequence (Q14524 whole entry, looked up): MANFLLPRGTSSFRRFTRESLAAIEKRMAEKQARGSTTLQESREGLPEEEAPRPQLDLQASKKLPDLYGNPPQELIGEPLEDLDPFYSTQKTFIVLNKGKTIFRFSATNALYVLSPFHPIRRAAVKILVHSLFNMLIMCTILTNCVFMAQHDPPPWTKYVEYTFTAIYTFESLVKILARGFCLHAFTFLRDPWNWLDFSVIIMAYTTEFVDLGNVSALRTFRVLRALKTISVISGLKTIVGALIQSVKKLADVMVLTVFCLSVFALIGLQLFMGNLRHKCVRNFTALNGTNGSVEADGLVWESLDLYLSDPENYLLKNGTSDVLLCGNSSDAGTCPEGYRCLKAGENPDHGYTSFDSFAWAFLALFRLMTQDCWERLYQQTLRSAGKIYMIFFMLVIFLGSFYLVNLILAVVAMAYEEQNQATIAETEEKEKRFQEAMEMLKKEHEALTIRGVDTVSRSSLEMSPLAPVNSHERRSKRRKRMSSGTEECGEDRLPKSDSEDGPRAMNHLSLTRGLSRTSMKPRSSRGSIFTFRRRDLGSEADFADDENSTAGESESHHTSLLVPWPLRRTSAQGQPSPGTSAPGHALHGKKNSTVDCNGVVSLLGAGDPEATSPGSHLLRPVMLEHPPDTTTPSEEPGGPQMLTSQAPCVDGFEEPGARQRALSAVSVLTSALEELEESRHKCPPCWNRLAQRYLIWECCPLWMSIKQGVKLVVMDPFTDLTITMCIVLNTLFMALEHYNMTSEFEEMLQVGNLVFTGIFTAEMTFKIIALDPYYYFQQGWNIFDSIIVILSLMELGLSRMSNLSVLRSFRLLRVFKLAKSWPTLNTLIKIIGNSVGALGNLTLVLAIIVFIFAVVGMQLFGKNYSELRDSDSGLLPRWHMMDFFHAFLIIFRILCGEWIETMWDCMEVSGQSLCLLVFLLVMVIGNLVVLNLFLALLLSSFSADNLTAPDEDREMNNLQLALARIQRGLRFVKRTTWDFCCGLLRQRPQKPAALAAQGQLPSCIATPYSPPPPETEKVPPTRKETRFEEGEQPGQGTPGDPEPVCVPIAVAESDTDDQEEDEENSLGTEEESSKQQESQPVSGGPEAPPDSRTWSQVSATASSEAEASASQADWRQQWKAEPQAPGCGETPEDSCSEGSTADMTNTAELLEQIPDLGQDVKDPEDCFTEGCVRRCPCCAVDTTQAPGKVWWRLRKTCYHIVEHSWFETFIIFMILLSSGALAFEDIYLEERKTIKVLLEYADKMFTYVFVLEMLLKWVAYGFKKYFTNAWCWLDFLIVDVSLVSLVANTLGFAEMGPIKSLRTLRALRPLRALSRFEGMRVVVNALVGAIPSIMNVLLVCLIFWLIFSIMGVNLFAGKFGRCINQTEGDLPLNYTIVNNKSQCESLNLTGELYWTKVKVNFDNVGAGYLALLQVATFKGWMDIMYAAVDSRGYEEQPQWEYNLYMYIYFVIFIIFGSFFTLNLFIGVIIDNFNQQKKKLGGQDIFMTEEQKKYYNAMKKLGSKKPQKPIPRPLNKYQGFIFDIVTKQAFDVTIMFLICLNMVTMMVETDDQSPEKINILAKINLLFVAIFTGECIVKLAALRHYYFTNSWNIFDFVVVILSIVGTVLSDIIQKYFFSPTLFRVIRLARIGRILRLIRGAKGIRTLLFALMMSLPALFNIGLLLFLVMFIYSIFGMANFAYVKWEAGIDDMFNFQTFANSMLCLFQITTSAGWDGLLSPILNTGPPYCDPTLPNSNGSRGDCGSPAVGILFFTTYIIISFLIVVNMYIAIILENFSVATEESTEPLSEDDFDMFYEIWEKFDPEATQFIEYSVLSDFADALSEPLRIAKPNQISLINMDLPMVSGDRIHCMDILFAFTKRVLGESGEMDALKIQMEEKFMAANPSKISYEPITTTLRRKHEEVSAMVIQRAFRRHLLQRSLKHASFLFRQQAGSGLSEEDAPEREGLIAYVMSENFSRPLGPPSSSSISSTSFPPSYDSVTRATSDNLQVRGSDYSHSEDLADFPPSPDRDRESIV

[1] = IonWorks Quattro, Use, read-out: IWQ Use Nav1.5
[2] = clamped to −110 mV, depolarized to −10 mV, 5 min after compound, n=2

hNav1.3, sequence (Q9NY46 whole entry, looked up): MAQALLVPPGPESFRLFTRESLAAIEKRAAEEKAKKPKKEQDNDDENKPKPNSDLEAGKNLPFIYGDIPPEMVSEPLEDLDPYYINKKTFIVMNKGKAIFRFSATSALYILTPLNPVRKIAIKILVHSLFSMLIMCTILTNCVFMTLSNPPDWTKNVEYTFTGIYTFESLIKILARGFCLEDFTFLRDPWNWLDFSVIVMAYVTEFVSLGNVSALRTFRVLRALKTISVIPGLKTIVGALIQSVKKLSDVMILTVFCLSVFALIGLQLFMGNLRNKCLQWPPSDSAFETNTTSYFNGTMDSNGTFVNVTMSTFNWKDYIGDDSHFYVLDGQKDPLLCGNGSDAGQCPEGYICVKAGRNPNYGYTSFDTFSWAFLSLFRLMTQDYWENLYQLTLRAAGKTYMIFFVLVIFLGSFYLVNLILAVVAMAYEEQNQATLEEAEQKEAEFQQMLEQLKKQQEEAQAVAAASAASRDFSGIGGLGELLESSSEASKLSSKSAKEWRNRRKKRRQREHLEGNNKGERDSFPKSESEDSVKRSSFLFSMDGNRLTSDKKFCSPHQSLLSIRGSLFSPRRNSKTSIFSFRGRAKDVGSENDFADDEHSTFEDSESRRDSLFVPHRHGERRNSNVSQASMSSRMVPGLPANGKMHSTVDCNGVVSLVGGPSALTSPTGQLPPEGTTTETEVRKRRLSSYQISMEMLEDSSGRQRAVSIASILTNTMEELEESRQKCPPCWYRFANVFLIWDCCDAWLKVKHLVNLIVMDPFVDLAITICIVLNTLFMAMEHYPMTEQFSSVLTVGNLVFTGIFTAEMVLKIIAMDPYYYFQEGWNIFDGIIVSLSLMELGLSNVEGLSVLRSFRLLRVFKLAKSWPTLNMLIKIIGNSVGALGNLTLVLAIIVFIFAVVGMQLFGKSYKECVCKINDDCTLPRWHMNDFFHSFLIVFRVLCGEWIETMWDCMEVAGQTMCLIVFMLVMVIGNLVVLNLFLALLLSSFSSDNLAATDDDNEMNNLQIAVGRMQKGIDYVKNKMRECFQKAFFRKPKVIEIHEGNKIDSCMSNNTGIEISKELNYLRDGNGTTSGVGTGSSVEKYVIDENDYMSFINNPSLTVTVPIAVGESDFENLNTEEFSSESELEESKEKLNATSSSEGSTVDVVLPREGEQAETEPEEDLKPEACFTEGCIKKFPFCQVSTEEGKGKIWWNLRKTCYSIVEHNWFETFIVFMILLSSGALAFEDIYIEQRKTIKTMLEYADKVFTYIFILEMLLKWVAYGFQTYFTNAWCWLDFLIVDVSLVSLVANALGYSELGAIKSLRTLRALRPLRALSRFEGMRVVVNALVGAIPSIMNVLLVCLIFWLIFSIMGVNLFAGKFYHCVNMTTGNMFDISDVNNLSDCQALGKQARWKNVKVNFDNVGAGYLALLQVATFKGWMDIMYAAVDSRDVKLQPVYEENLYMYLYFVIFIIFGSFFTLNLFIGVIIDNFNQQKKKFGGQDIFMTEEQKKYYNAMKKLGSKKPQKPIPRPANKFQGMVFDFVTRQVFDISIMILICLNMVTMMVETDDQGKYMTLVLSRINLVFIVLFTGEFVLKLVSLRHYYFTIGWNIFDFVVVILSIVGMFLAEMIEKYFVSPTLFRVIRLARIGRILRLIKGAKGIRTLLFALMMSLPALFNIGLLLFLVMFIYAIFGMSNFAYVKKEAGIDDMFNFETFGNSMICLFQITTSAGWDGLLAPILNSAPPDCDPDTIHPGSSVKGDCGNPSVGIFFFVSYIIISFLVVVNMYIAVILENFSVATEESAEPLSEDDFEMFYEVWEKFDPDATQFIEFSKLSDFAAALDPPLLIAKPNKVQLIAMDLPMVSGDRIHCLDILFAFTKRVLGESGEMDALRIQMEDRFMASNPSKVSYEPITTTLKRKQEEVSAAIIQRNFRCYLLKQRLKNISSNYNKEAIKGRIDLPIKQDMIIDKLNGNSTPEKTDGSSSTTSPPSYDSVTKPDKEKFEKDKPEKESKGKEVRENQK

Compound: CC[C@H](C)[C@@H]1NC(=O)[C@@H]2CSSC[C@@H]3NC(=O)[C@H](C(C)C)NC(=O)[C@H](CC(C)C)NC(=O)[C@H](CC(N)=O)NC(=O)[C@@H]4CCCN4C(=O)[C@H](CCCNC(=N)N)NC(=O)[C@H](CSSC[C@H](NC(=O)[C@@H](N)CC(=O)O)C(=O)N[C@@H](CC(C)C)C(=O)NCC(=O)N[C@@H](Cc4ccccc4)C(=O)N[C@@H](CCSC)C(=O)N[C@@H](CCCNC(=N)N)C(=O)N[C@@H](CCCCN)C(=O)N2)NC(=O)[C@H](CSSC[C@@H](C(=O)N[C@@H](CCCCN)C(=O)N[C@@H](Cc2ccc(O)cc2)C(=O)N[C@H](C(=O)N[C@@H](Cc2ccccc2)C(N)=O)C(C)C)NC(=O)[C@H](Cc2c[nH]c4ccccc24)NC(=O)[C@H](CCCCN)NC(=O)[C@H](Cc2cnc[nH]2)NC(=O)[C@H]([C@@H](C)O)NC(=O)[C@H](CCCCN)NC(=O)[C@H](CO)NC3=O)NC(=O)[C@H](CCCCN)NC(=O)[C@H](CC(=O)O)NC(=O)[C@H](CC(N)=O)NC(=O)[C@H](CC(=O)O)NC(=O)[C@@H]2CCCN2C1=O [compound 53] (H-DCLGFMRKCIPDNDKCCRPNLVCSKTHKWCKYVF-NH2; disulfide 2-17, 9-23, 16-30)
- IC50 (hNav1.3; Use): 0.24 µM
- IC50 (hNav1.5; IWQ Use Nav1.5 (μM)): 15.2 µM

Compound: CSCC[C@@H]1NC(=O)[C@H](Cc2ccccc2)NC(=O)CNC(=O)[C@H](CC(C)C)NC(=O)[C@@H](NC(=O)[C@@H](N)CC(=O)O)CSSC[C@@H]2NC(=O)[C@@H]3CSSC[C@@H](C(=O)N[C@@H](CCCCN)C(=O)N[C@@H](Cc4ccc(O)cc4)C(=O)N[C@H](C(=O)N[C@@H](Cc4ccccc4)C(N)=O)C(C)C)NC(=O)[C@H](Cc4c[nH]c5ccccc45)NC(=O)[C@H](CCCCN)NC(=O)[C@H](Cc4cnc[nH]4)NC(=O)[C@H]([C@@H](C)O)NC(=O)[C@H](CCCNC(=N)N)NC(=O)[C@H](CO)NC(=O)[C@H](CSSC[C@H](NC(=O)[C@H](CCCCN)NC(=O)[C@H](CCCNC(=N)N)NC1=O)C(=O)N[C@@H](Cc1ccccc1)C(=O)N1CCC[C@H]1C(=O)N[C@@H](CC(=O)O)C(=O)N[C@@H](CC(N)=O)C(=O)N[C@@H](CC(=O)O)C(=O)N[C@@H](CCCCN)C(=O)N3)NC(=O)[C@H](C(C)C)NC(=O)[C@H](CC(C)C)NC(=O)[C@H](CC(N)=O)NC(=O)[C@@H]1CCCN1C(=O)[C@H](CCCNC(=N)N)NC2=O [compound 302] (H-DCLGFMRKCFPDNDKCCRPNLVCSRTHKWCKYVF-NH2; disulfide 2-17, 9-23, 16-30)
- IC50 (hNav1.3; Use): 0.08 µM
- IC50 (hNav1.5; [1]): 5.33 µM

Compound: CC[C@H](C)[C@@H]1NC(=O)[C@@H]2CSSC[C@@H]3NC(=O)[C@H](C(C)C)NC(=O)[C@H](CC(C)C)NC(=O)[C@H](CC(N)=O)NC(=O)[C@@H]4CCCN4C(=O)[C@H](CCCNC(=N)N)NC(=O)[C@H](CSSC[C@H](NC(=O)[C@@H](N)CC(=O)O)C(=O)N[C@@H](CC(C)C)C(=O)NCC(=O)N[C@@H](CCCNC(=N)N)C(=O)N[C@@H](CCSC)C(=O)N[C@@H](CCCNC(=N)N)C(=O)N[C@@H](CCCCN)C(=O)N2)NC(=O)[C@H](CSSC[C@@H](C(=O)N[C@@H](CCCCN)C(=O)N[C@@H](Cc2ccc(O)cc2)C(=O)N[C@H](C(=O)N[C@@H](Cc2ccccc2)C(N)=O)C(C)C)NC(=O)[C@H](Cc2c[nH]c4ccccc24)NC(=O)[C@H](CCCCN)NC(=O)[C@H](Cc2cnc[nH]2)NC(=O)[C@H]([C@@H](C)O)NC(=O)[C@H](CCCNC(=N)N)NC(=O)[C@H](CO)NC3=O)NC(=O)[C@H](CCCCN)NC(=O)[C@H](CC(=O)O)NC(=O)[C@H](CC(N)=O)NC(=O)[C@H](CC(=O)O)NC(=O)[C@@H]2CCCN2C1=O [SEQ ID NO: 156] (H-DCLGRMRKCIPDNDKCCRPNLVCSRTHKWCKYVF-NH2; disulfide 2-17, 9-23, 16-30)
- IC50 (hNav1.3; [2]): 4.09 µM
- IC50 (hNav1.5; IonWorks Quattro, clamped to −110 mV, depolarized to −10 mV, 5 min after compound, n=2, read-out: IWQ Use Nav1.5): 12.6 µM

Compound: CC[C@H](C)[C@@H]1NC(=O)[C@@H]2CSSC[C@@H]3NC(=O)[C@H](C(C)C)NC(=O)[C@H](CC(C)C)NC(=O)[C@H](CC(N)=O)NC(=O)[C@@H]4CCCN4C(=O)[C@H](CCCNC(=N)N)NC(=O)[C@H](CSSC[C@H](NC(=O)[C@@H](N)CC(=O)O)C(=O)N[C@@H](CC(C)C)C(=O)NCC(=O)N[C@@H](Cc4ccccc4)C(=O)N[C@@H](CCSC)C(=O)N[C@@H](CCCNC(=N)N)C(=O)N[C@@H](CCCCN)C(=O)N2)NC(=O)[C@H](CSSC[C@@H](C(=O)N[C@@H](CCCCN)C(=O)N[C@@H](Cc2ccc(O)cc2)C(=O)N[C@H](C(=O)N[C@@H](Cc2ccccc2)C(N)=O)C(C)C)NC(=O)[C@H](Cc2c[nH]c4ccccc24)N(C)C(=O)[C@H](CCCCN)NC(=O)[C@H](Cc2c[nH]cn2)NC(=O)[C@H]([C@@H](C)O)NC(=O)[C@H](CCCNC(=N)N)NC(=O)[C@H](CO)NC3=O)NC(=O)[C@H](CCCCN)NC(=O)[C@H](CC(=O)O)NC(=O)[C@H](CC(N)=O)NC(=O)[C@H](CC(=O)O)NC(=O)[C@@H]2CCCN2C1=O [compound 357]
- IC50 (hNav1.3; Table 24, use, […]): > 5 µM
- IC50 (hNav1.5; IWQ Use Nav1.5 (μM)): > 5 µM

Compound: CC[C@H](C)[C@@H]1NC(=O)[C@@H]2CSSC[C@@H]3NC(=O)[C@H](C(C)C)NC(=O)[C@H](CC(C)C)NC(=O)[C@H](CC(N)=O)NC(=O)[C@@H]4CCCN4C(=O)[C@H](CCCNC(=N)N)NC(=O)[C@H](CSSC[C@H](NC(=O)[C@@H](N)CCCCN)C(=O)N[C@@H](CC(C)C)C(=O)NCC(=O)N[C@@H](Cc4ccccc4)C(=O)N[C@@H](CCSC)C(=O)N[C@@H](CCCNC(=N)N)C(=O)N[C@@H](CCCCN)C(=O)N2)NC(=O)[C@H](CSSC[C@@H](C(=O)N[C@@H](CCCCN)C(=O)N[C@@H](Cc2ccc(O)cc2)C(=O)N[C@H](C(=O)N[C@@H](Cc2ccccc2)C(N)=O)C(C)C)NC(=O)[C@H](Cc2c[nH]c4ccccc24)NC(=O)[C@H](CCCCN)NC(=O)[C@H](Cc2cnc[nH]2)NC(=O)[C@H]([C@@H](C)O)NC(=O)[C@H](CCCNC(=N)N)NC(=O)[C@H](CO)NC3=O)NC(=O)[C@H](CCCCN)NC(=O)[C@H](CC(=O)O)NC(=O)[C@H](CC(N)=O)NC(=O)[C@H](CC(=O)O)NC(=O)[C@@H]2CCCN2C1=O [SEQ ID NO: 37] (H-KCLGFMRKCIPDNDKCCRPNLVCSRTHKWCKYVF-NH2; disulfide 2-17, 9-23, 16-30)
- IC50 (hNav1.3; [2]): 0.07 µM
- IC50 (hNav1.5; IWQ Use Nav1.5): 7.29 µM

Compound: CC[C@H](C)[C@@H]1NC(=O)[C@@H]2CSSC[C@@H]3NC(=O)[C@H](C(C)C)NC(=O)[C@H](CC(C)C)NC(=O)[C@H](CC(N)=O)NC(=O)[C@@H]4CCCN4C(=O)[C@H](CCCCN(C)C)NC(=O)[C@H](CSSC[C@H](NC(=O)[C@@H](N)CC(=O)O)C(=O)N[C@@H](CC(C)C)C(=O)NCC(=O)N[C@@H](Cc4ccccc4)C(=O)N[C@@H](CCSC)C(=O)N[C@@H](CCCNC(=N)N)C(=O)N[C@@H](CCCCN)C(=O)N2)NC(=O)[C@H](CSSC[C@@H](C(=O)N[C@@H](CCCCN)C(=O)N[C@@H](Cc2ccc(O)cc2)C(=O)N[C@H](C(=O)N[C@@H](Cc2ccccc2)C(N)=O)C(C)C)NC(=O)[C@H](Cc2c[nH]c4ccccc24)NC(=O)[C@H](CCCCN)NC(=O)[C@H](Cc2cnc[nH]2)NC(=O)[C@H]([C@@H](C)O)NC(=O)[C@H](CCCNC(=N)N)NC(=O)[C@H](CO)NC3=O)NC(=O)[C@H](CCCCN)NC(=O)[C@H](CC(=O)O)NC(=O)[C@H](CC(N)=O)NC(=O)[C@H](CC(=O)O)NC(=O)[C@@H]2CCCN2C1=O [compound 314] (H-DCLGFMRKCIPDNDKCC[Lys(Me2)]PNLVCSRTHKWCKYVF-NH2; disulfide 2-17, 9-23, 16-30)
- IC50 (hNav1.3; Use): 0.08 µM
- IC50 (hNav1.5; [1]): 6.55 µM

Compound: CC[C@H](C)[C@@H]1NC(=O)[C@@H]2CSSC[C@@H]3NC(=O)[C@H](C(C)C)NC(=O)[C@H](CC(C)C)NC(=O)[C@H](C)NC(=O)[C@@H]4CCCN4C(=O)[C@H](CCCNC(=N)N)NC(=O)[C@H](CSSC[C@H](NC(=O)[C@@H](N)CC(=O)O)C(=O)N[C@@H](CC(C)C)C(=O)NCC(=O)N[C@@H](Cc4ccccc4)C(=O)N[C@@H](CCSC)C(=O)N[C@@H](CCCNC(=N)N)C(=O)N[C@@H](CCCCN)C(=O)N2)NC(=O)[C@H](CSSC[C@@H](C(=O)N[C@@H](CCCCN)C(=O)N[C@@H](Cc2ccc(O)cc2)C(=O)N[C@H](C(=O)N[C@@H](Cc2ccccc2)C(N)=O)C(C)C)NC(=O)[C@H](Cc2c[nH]c4ccccc24)NC(=O)[C@H](CCCCN)NC(=O)[C@H](Cc2cnc[nH]2)NC(=O)[C@H]([C@@H](C)O)NC(=O)[C@H](CCCNC(=N)N)NC(=O)[C@H](CO)NC3=O)NC(=O)[C@H](CCCCN)NC(=O)[C@H](CC(=O)O)NC(=O)[C@H](CC(N)=O)NC(=O)[C@H](CC(=O)O)NC(=O)[C@@H]2CCCN2C1=O [compound 7] (H-DCLGFMRKCIPDNDKCCRPALVCSRTHKWCKYVF-NH2; disulfide 2-17, 9-23, 16-30)
- IC50 (hNav1.3; Use): 0.41 µM
- IC50 (hNav1.5; [1]): 19.5 µM

Compound: CC[C@H](C)[C@@H]1NC(=O)[C@@H]2CSSC[C@@H]3NC(=O)[C@H](C(C)C)NC(=O)[C@H](CC(C)C)NC(=O)[C@H](CC(N)=O)NC(=O)[C@@H]4CCCN4C(=O)[C@H](CCCNC(=N)N)NC(=O)[C@H](CSSC[C@H](NC(=O)[C@@H](N)CC(=O)O)C(=O)N[C@@H](CC(C)C)C(=O)NCC(=O)N[C@@H](Cc4ccccc4)C(=O)N[C@@H](CCSC)C(=O)N[C@@H](CCCNC(=N)N)C(=O)N[C@@H](CCCCN)C(=O)N2)NC(=O)[C@H](CSSC[C@@H](C(=O)N[C@@H](CCCCN)C(=O)N[C@@H](Cc2ccc(O)cc2)C(=O)N[C@H](C(=O)N[C@@H](Cc2ccccc2)C(N)=O)C(C)C)NC(=O)[C@H](Cc2cccc4ccccc24)NC(=O)[C@H](CCCCN)NC(=O)[C@H](Cc2cnc[nH]2)NC(=O)[C@H]([C@@H](C)O)NC(=O)[C@H](CCCNC(=N)N)NC(=O)[C@H](CO)NC3=O)NC(=O)[C@H](CCCCN)NC(=O)[C@H](CC(=O)O)NC(=O)[C@H](CC(N)=O)NC(=O)[C@H](CC(=O)O)NC(=O)[C@@H]2CCCN2C1=O [SEQ ID NO: 79, [1-Nal29]GpTx-1] (H-DCLGFMRKCIPDNDKCCRPNLVCSRTHK[1Nal]CKYVF-NH2; disulfide 2-17, 9-23, 16-30)
- IC50 (hNav1.3; Table 24, use, […]): 1.55 µM
- IC50 (hNav1.5; Table 24, IonWorks Quattro, use, […], read-out: IWQ Use Nav1.5): 9.25 µM

— patent US9340590B2 (priority 2011, dated 2016)
